Assay results published in PubChem BioAssay AID248 (DTP/NCI, 2004).
Several values for one entry are separate records, joined by “and”; a condition that tells them apart may be missing. Identical values can stand only once. Inconclusive results and toxic doses are left out.

System: L1210 leukemia ip in BDF1 mice, survival T/C
Test: NCI In Vivo Anticancer Drug Screen. Data for tumor model L1210 Leukemia (intraperitoneal) in B6D2F1 (BDF1) mice
Details: endpoint: mean survival time, higher = longer survival
Outline: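 Tumor cells were implanted, animals were treated, and survival was followed. The result divides the treated measurement by the vehicle-control measurement.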

[1] = dose: 100.0 mg/kg/injection, schedule: Q01DX001 (ip), vehicle: saline
[2] = dose: 300.0 mg/kg/injection, schedule: Q01DX001 (ip), vehicle: saline
[3] = dose: 200.0 mg/kg/injection, schedule: Q01DX001 (ip), vehicle: saline
[4] = dose: 100.0 mg/kg/injection, schedule: Q04DX003 (ip), vehicle: Klucel (hydroxypropylcellulose) (HPC)
[5] = dose: 200.0 mg/kg/injection, schedule: Q04DX003 (ip), vehicle: Klucel (hydroxypropylcellulose) (HPC)
[6] = dose: 400.0 mg/kg/injection, schedule: Q04DX003 (ip), vehicle: Klucel (hydroxypropylcellulose) (HPC)
[7] = dose: 100.0 mg/kg/injection, schedule: Q01DX009 (ip), vehicle: saline
[8] = dose: 200.0 mg/kg/injection, schedule: Q01DX009 (ip), vehicle: saline
[9] = dose: 100.0 mg/kg/injection, schedule: Q01DX001 (ip), vehicle: carboxymethylcellulose (CMC)
[10] = dose: 200.0 mg/kg/injection, schedule: Q01DX001 (ip), vehicle: carboxymethylcellulose (CMC)
[11] = dose: 400.0 mg/kg/injection, schedule: Q01DX001 (ip), vehicle: carboxymethylcellulose (CMC)
[12] = dose: 50.0 mg/kg/injection, schedule: Q04DX003 (ip), vehicle: Klucel (hydroxypropylcellulose) (HPC)
[13] = dose: 100.0 mg/kg/injection, schedule: Q01DX009 (ip), vehicle: Klucel (hydroxypropylcellulose) (HPC)
[14] = dose: 200.0 mg/kg/injection, schedule: Q01DX009 (ip), vehicle: Klucel (hydroxypropylcellulose) (HPC)

Question: What does the source list for `O=C(CCl)Nc1ccc(S(=O)(=O)c2ccc([N+](=O)[O-])cc2)cc1`?
Answer: T/C (dose: 30.0 mg/kg/injection, schedule: Q01DX001 (ip), vehicle: saline): 94 % of control; T/C (dose: 75.0 mg/kg/injection, schedule: Q01DX009 (ip), vehicle: saline): 95 % of control; T/C (dose: 75.0 mg/kg/injection, schedule: Q04DX003 (ip), vehicle: saline): 92 % of control; T/C [1]: 91 % of control; T/C (dose: 150.0 mg/kg/injection, schedule: Q01DX009 (ip), vehicle: saline): 96 % of control; T/C (dose: 150.0 mg/kg/injection, schedule: Q04DX003 (ip), vehicle: saline): 91 % of control; T/C [2]: 94 % of control; T/C (dose: 300.0 mg/kg/injection, schedule: Q01DX009 (ip), vehicle: saline): 101 % of control; T/C (dose: 300.0 mg/kg/injection, schedule: Q04DX003 (ip), vehicle: saline): 94 % of control

Question: Which T/C [1] does the source give for `CCOCCOCCOC(=O)COCC(=O)OCCOCCOCC` here?
Answer: 96 % of control

Question: What about the T/C [3] of the same compound?
Answer: 113 % of control

Question: And the T/C (dose: 400.0 mg/kg/injection, schedule: Q01DX001 (ip), vehicle: saline)?
Answer: 111 % of control

Question: Which results are given for `CC1(C)CC(=O)C=C(NCc2ccccc2)C1`?
Answer: T/C (dose: 50.0 mg/kg/injection, schedule: Q01DX009 (ip), vehicle: acetone): 96 % of control; T/C (dose: 100.0 mg/kg/injection, schedule: Q01DX009 (ip), vehicle: acetone): 95 % of control; T/C (dose: 200.0 mg/kg/injection, schedule: Q01DX009 (ip), vehicle: acetone): 101 % of control

Question: How did the T/C (dose: 100.0 mg/kg/injection, schedule: Q01DX001 (ip), vehicle: Klucel (hydroxypropylcellulose) (HPC)) turn out when `COc1ccc(C2=NCCO2)cc1N` was run?
Answer: 114 % of control

Question: And the T/C [4]?
Answer: 96 % of control

Question: And the T/C (dose: 200.0 mg/kg/injection, schedule: Q01DX001 (ip), vehicle: Klucel (hydroxypropylcellulose) (HPC))?
Answer: 104 % of control

Question: And the T/C [5]?
Answer: 98 % of control

Question: What about the T/C (dose: 400.0 mg/kg/injection, schedule: Q01DX001 (ip), vehicle: Klucel (hydroxypropylcellulose) (HPC)) of the same compound?
Answer: 104 % of control

Question: What about the T/C [6] of the same compound?
Answer: 91 % of control

Question: For `CCCCNC(=O)c1ccccc1-c1ccccc1C(=O)NCCCC`, which T/C (dose: 100.0 mg/kg/injection, schedule: Q01DX001 (ip), vehicle: other) is on record?
Answer: 105 % of control

Question: What about the T/C (dose: 200.0 mg/kg/injection, schedule: Q01DX001 (ip), vehicle: other) of the same compound?
Answer: 97 % of control

Question: What does the source list for `CC1CC(C)(C)NCCNC(C)CC(C)(C)NCCN1` (stereo not drawn)?
Answer: T/C (dose: 12.5 mg/kg/injection, schedule: Q04DX002 (ip), vehicle: Klucel (hydroxypropylcellulose) (HPC)): 97 % of control; T/C (dose: 25.0 mg/kg/injection, schedule: Q04DX002 (ip), vehicle: Klucel (hydroxypropylcellulose) (HPC)): 94 % of control; T/C (dose: 50.0 mg/kg/injection, schedule: Q04DX002 (ip), vehicle: Klucel (hydroxypropylcellulose) (HPC)): 94 % of control

Question: What does the source list for `CCCOCC(O)CO` (stereo not drawn)?
Answer: T/C [7]: 100 % of control; T/C (dose: 100.0 mg/kg/injection, schedule: Q04DX003 (ip), vehicle: saline): 107 % of control; T/C [8]: 98 % of control; T/C (dose: 200.0 mg/kg/injection, schedule: Q04DX003 (ip), vehicle: saline): 102 % of control; T/C (dose: 400.0 mg/kg/injection, schedule: Q01DX009 (ip), vehicle: saline): 102 % of control; T/C (dose: 400.0 mg/kg/injection, schedule: Q04DX003 (ip), vehicle: saline): 110 % of control

Question: What does the source list for `COc1ccc(OC)c(NC(=O)Nc2cccc(C(F)(F)F)c2)c1`?
Answer: T/C (dose: 25.0 mg/kg/injection, schedule: Q01DX009 (ip), vehicle: carboxymethylcellulose (CMC)): 97 % of control and 87 % of control; T/C (dose: 50.0 mg/kg/injection, schedule: Q01DX009 (ip), vehicle: carboxymethylcellulose (CMC)): 112 % of control and 88 % of control; T/C [9]: 103 % of control and 107 % of control; T/C (dose: 100.0 mg/kg/injection, schedule: Q01DX009 (ip), vehicle: carboxymethylcellulose (CMC)): 87 % of control; T/C (dose: 100.0 mg/kg/injection, schedule: Q04DX002 (ip), vehicle: carboxymethylcellulose (CMC)): 95 % of control and 89 % of control; T/C (dose: 100.0 mg/kg/injection, schedule: Q04DX003 (ip), vehicle: carboxymethylcellulose (CMC)): 103 % of control and 87 % of control; T/C [10]: 96 % of control and 89 % of control; T/C (dose: 200.0 mg/kg/injection, schedule: Q04DX002 (ip), vehicle: carboxymethylcellulose (CMC)): 92 % of control and 99 % of control; T/C (dose: 200.0 mg/kg/injection, schedule: Q04DX003 (ip), vehicle: carboxymethylcellulose (CMC)): 93 % of control and 87 % of control; T/C [11]: 94 % of control and 100 % of control; T/C (dose: 400.0 mg/kg/injection, schedule: Q01DX009 (ip), vehicle: carboxymethylcellulose (CMC)): 86 % of control; T/C (dose: 400.0 mg/kg/injection, schedule: Q04DX002 (ip), vehicle: carboxymethylcellulose (CMC)): 86 % of control; T/C (dose: 400.0 mg/kg/injection, schedule: Q04DX003 (ip), vehicle: carboxymethylcellulose (CMC)): 90 % of control

Question: What does the source list for `CN1CSCSC1`?
Answer: T/C (dose: 50.0 mg/kg/injection, schedule: Q01DX009 (ip), vehicle: saline): 104 % of control; T/C [7]: 98 % of control; T/C (dose: 100.0 mg/kg/injection, schedule: Q04DX003 (ip), vehicle: saline with Tween-80): 101 % of control; T/C (dose: 200.0 mg/kg/injection, schedule: Q04DX003 (ip), vehicle: saline with Tween-80): 100 % of control; T/C (dose: 400.0 mg/kg/injection, schedule: Q04DX003 (ip), vehicle: saline with Tween-80): 97 % of control

Question: What does the source list for `S=C(Nc1cc2c3c(c1)CCCN3CCC2)Nc1cc2c3c(c1)CCCN3CCC2`?
Answer: T/C (dose: 50.0 mg/kg/injection, schedule: Q01DX001 (ip), vehicle: saline with Tween-80): 107 % of control; T/C (dose: 100.0 mg/kg/injection, schedule: Q01DX001 (ip), vehicle: saline with Tween-80): 94 % of control; T/C (dose: 200.0 mg/kg/injection, schedule: Q01DX001 (ip), vehicle: saline with Tween-80): 97 % of control; T/C (dose: 400.0 mg/kg/injection, schedule: Q01DX001 (ip), vehicle: saline with Tween-80): 89 % of control

Question: What does the source list for `CCOC(=O)C1(C(=O)OCC)C(C)CC(O)N1C(=O)c1cc2c(cc1[N+](=O)[O-])OCO2` (stereo not drawn)?
Answer: T/C (dose: 25.0 mg/kg/injection, schedule: Q04DX003 (ip), vehicle: Klucel (hydroxypropylcellulose) (HPC)): 94 % of control; T/C [12]: 94 % of control; T/C [4]: 89 % of control

Question: What does the source list for `O=C(OCC1OC(n2cnc3c(=S)nc[nH]c32)C(OC(=O)c2ccc([N+](=O)[O-])cc2)C1OC(=O)c1ccc([N+](=O)[O-])cc1)c1ccc([N+](=O)[O-])cc1` (stereo not drawn)?
Answer: T/C (dose: 16.5 mg/kg/injection, schedule: Q01DX009 (ip), vehicle: saline with Tween-80): 95 % of control; T/C (dose: 33.0 mg/kg/injection, schedule: Q01DX009 (ip), vehicle: saline with Tween-80): 117 % of control; T/C [1]: 121 % of control; T/C (dose: 100.0 mg/kg/injection, schedule: Q01DX Z (ip), vehicle: other): 112 % of control; T/C (dose: 132.0 mg/kg/injection, schedule: Q01DX001 (ip), vehicle: saline): 111 % of control and 118 % of control; T/C [3]: 106 % of control and 120 % of control; T/C [8]: 152 % of control; T/C [2]: 117 % of control; T/C (dose: 800.0 mg/kg/injection, schedule: Q01DX Z (ip), vehicle: other): 93 % of control

Question: For `O=C(O)/C(Br)=C\c1ccc(Br)o1`, which T/C (dose: 50.0 mg/kg/injection, schedule: Q01DX009 (ip), vehicle: Klucel (hydroxypropylcellulose) (HPC)) is on record?
Answer: 97 % of control

Question: And the T/C [13]?
Answer: 94 % of control

Question: What about the T/C (dose: 100.0 mg/kg/injection, schedule: Q04DX002 (ip), vehicle: Klucel (hydroxypropylcellulose) (HPC)) of the same compound?
Answer: 97 % of control

Question: And the T/C [14]?
Answer: 97 % of control

Question: What about the T/C (dose: 200.0 mg/kg/injection, schedule: Q04DX002 (ip), vehicle: Klucel (hydroxypropylcellulose) (HPC)) of the same compound?
Answer: 90 % of control

Question: Which results are given for `O=C(COc1ccc(Cl)cc1)Nc1ccc[n+](Cc2ccc(S(=O)(=O)F)cc2)c1`?
Answer: T/C [13]: 105 % of control; T/C [14]: 101 % of control

Question: `Oc1ccc(Cl)cc1Cc1cc(Cl)cc(Cc2cc(Cl)ccc2O)c1O` was tested. Which T/C (dose: 12.5 mg/kg/injection, schedule: Q01DX009 (ip), vehicle: saline with Tween-80) did it give?
Answer: 98 % of control

Question: And the T/C (dose: 25.0 mg/kg/injection, schedule: Q01DX009 (ip), vehicle: saline with Tween-80)?
Answer: 102 % of control

Question: And the T/C (dose: 50.0 mg/kg/injection, schedule: Q01DX009 (ip), vehicle: saline with Tween-80)?
Answer: 109 % of control

Question: How did the T/C (dose: 50.0 mg/kg/injection, schedule: Q01DX001 (ip), vehicle: carboxymethylcellulose (CMC)) turn out when `Oc1ccccc1C1N(Cc2ccc(N(CCCl)CCCl)cc2Cl)CCCN1Cc1ccc(N(CCCl)CCCl)cc1Cl` was run?
Answer: 96 % of control

Question: What about the T/C [9] of the same compound?
Answer: 90 % of control

Question: And the T/C [10]?
Answer: 94 % of control

Question: And the T/C [11]?
Answer: 102 % of control

Question: Which results are given for `Cc1ccc(S(=O)(=O)OCC2OC(OCc3ccccc3)C3OC(C)(C)OC23)cc1` (stereo not drawn)?
Answer: T/C [12]: 91 % of control; T/C [5]: 88 % of control; T/C [6]: 92 % of control
